According to patent publication US8642654B2, “Hydroxybutyrate ester and medical use thereof” (ISIS Innovation Limited, priority 2011, dated 2014):
“Also recorded” adds a separate entry of the source. Marks after values point to notes of the source that are not given here.

Experiments:
[1] = tested on: Krebs cycle and CoA intermediates in the brain; experiment: Brain Krebs cycle and CoA intermediates after 14 days of diet; type: in vivo, Wistar rats; conditions: rat brain
Experimental: In a 14-day study, Wistar rats weighing about 250 g were randomized to one of three diet groups (n=6 rats/group) and administered either a carbohydrate (“starch”) diet, a normal human (“fat”) diet or a ketone ester diet, in which the ketone ester used was the ketone monoester (3R)-hydroxybutyl (3R)-hydroxybutyrate diet (i.e. the compound of the invention). The three diets were eaten in pair fed meals for 3 hours per day. The composition of the diets expressed in terms of g/100 g are summarised in Table 5 and the compositions expressed in terms of % of calories are summarised in Table 6. After eating the 3 diets in pair fed meals for 3 hours per day for 14 days, the levels of various Krebs cycle and CoA intermediates in the brain were measured enzymatically and by mass spectrometry using standard techniques. […] Malonyl CoA is a metabolite known to be associated with decreased food intake; it is known to decrease appetite (Wolfgang, M. J. and Lane, M. D. (2006) J. Biol. Chem. 281, 37265-37269). […] The values in Table 7 are means, in μmoles/g wet weight, ±SEM with n=6 to 8. CoA's are given in nmol/g wet weight.

[2] = tested on: Brain Derived Neurotropic Factor (BDNF); experiment: Neuropeptide levels in sectioned rat brain by antibody techniques: BDNF; type: in vivo; conditions: rat hypothalamus, ketone diet
Experimental: (§1) In a 14-day study, Wistar rats weighing about 250 g were randomized to one of three diet groups (n=6 rats/group) and administered either a carbohydrate (“starch”) diet, a normal human (“fat”) diet or a ketone ester diet, in which the ketone ester used was the ketone monoester (3R)-hydroxybutyl (3R)-hydroxybutyrate diet (i.e. the compound of the invention). The three diets were eaten in pair fed meals for 3 hours per day. The composition of the diets expressed in terms of g/100 g are summarised in Table 5 and the compositions expressed in terms of % of calories are summarised in Table 6. After 14 days of feeding with the fat, carbohydrate or ketone ester diet, the levels of various neuropeptides known to be associated with decreased food intake and decreased appetite (“anorexigenic” peptides) were surveyed in the paraventricular nucleus (PVN) area of the hypothalamus and in the hippocampus of the rat brain. The neuropeptide levels were measured using standard antibody techniques performed on sectioned brains of the rats. The results are shown in the micrographs of FIGS. 3 to 9. The peptides measured were Brain Derived Neurotropic Factor (BDNF), melanocyte-stimulating hormone receptor 4 (MC4R), and Cocaine-and-Amphetamine Responsive Transcript (CART). […]

[3] = In vivo testing, meal-fed diets (Example 3); conditions: meal-fed rats, n=8 per group
Text: Example 2 was repeated using the same foods as shown in Table 1 but where the rats were meal-fed. […] The daily body weight (in grams per rat per day) was plotted against time for rats in each of the three diet groups over the first six days of the test. One-way analysis of variance with Tukey-Kramer multiple comparison test was used (n=8 per group, **p<0.001). […] The body weight of rats in the group fed the carbohydrate diet remained high throughout the feeding process. […] The daily food intake (in grams per rat per day) was plotted against time for rats in each of the three diet groups over the first seven days of the test. Again, one-way analysis of variance with Tukey-Kramer multiple comparison test was used (n=8 per group, ***p<0.001).

[4] = In vivo testing, calorie-controlled diets, 66 days (Example 2); design: species or system Wistar rats
Experimental: Young adult male Wistar rats (starting weight 70 g) (Harlan UK Limited) (n=50) were housed at approximately 20° C. on a 12h:12h reverse light:dark photoperiod. Rats were fed standard laboratory chow (Chow) (SDS, Essex, UK) prior to the starting the experimental diets: (a) normal “Western” diet (Western) in which 34% of kilocalories came from added palmitate (n=20), (b) high-carbohydrate (CHO) in which 70% of kilocalories came from added corn starch (n=10) or (c) (3R)-hydroxybutyl (3R)-hydroxybutyrate diet (monoester) in which 30% of kilocalories came from (3R)-hydroxybutyl (3R)-hydroxybutyrate (n=20). The macronutrient compositions of the three diets are shown below. All diets contained the same energy in kCal/g but had different macronutrients. Rats were individually housed one week prior to the start of the experiments, so that they were accustomed to living in a solitary environment by the time the study started. They consumed standard laboratory chow ad libitum until they were placed on their experimental diet. Rats fed the Western and carbohydrate diets were fed the same number of calories as those consumed by the monoester-fed rats the previous day. All rats were fed for 66 days. After this period the rat body, heart and fat pad weights were determined.

[5] = Blood levels of (3R)-hydroxybutyrate after oral ingestion; type: in vivo; conditions: ingested orally
[6] = tested on: Cocaine-and-Amphetamine Responsive Transcript (CART); experiment: Neuropeptide levels in sectioned rat brain by antibody techniques: CART; type: in vivo; conditions: 14 days ketone diet
Experimental: as §1

[7] = tested on: free nucleotide ratios and concentrations in the brain; experiment: Calculated free nucleotide ratios and concentrations in freeze blown brain after 14 days of diet; type: in vivo, Wistar rats
Experimental: (§2) In a 14-day study, Wistar rats weighing about 250 g were randomized to one of three diet groups (n=6 rats/group) and administered either a carbohydrate (“starch”) diet, a normal human (“fat”) diet or a ketone ester diet, in which the ketone ester used was the ketone monoester (3R)-hydroxybutyl (3R)-hydroxybutyrate diet (i.e. the compound of the invention). The three diets were eaten in pair fed meals for 3 hours per day. The composition of the diets expressed in terms of g/100 g are summarised in Table 5 and the compositions expressed in terms of % of calories are summarised in Table 6.
After the rats were fed on the diets for 14 days, the ratios of free nucleotide and the free nucleotide concentrations were determined. Measurements were performed on the freeze blown brain and metabolite ratios of the rats calculated as previously described (Veech, R. L. et al, J. Biol. Chem. 254:6538-47, 1979). The values in Table 8 are given as means±SEM (n=6 to 8). Cytosolic pH was assumed to be 7.2.

[8] = 28-day study, isonitrogenous and isocaloric diets (Example 4); type: in vivo, Wistar rats; conditions: for total amount of weight gained compared with CHOD and NHD groups: 28-day study; for feed intake during days 22 to 29: KD; for body weight on day 28: KD group
Text: In a 28-day study, male and female Wistar rats weighing approximately 350 g were randomized to one of three diet groups (n=10 males and 10 females/group) and administered either a carbohydrate diet (CHOD), a normal human diet (NHD), or a ketone diet (KD). The diets were isonitrogenous and isocaloric, differing only in their relative amounts of carbohydrate, fat, and ketones. In the KD, the ketone used was the ketone monoester (3R)-hydroxybutyl (3R)-hydroxybutyrate diet (i.e. the compound of the invention). In the KD, approximately ⅓ of the energy was derived from the ketone ester, while in the NHD and CHOD, ⅓ of the energy was derived from palmitate and starch, respectively.

[9] = 14-day pair fed meal diets: food consumption and weight gain (Example 5); type: in vivo, Wistar rats; conditions: rats, 14-day study
Experimental: as §2

[10] = tested on: melanocyte-stimulating hormone receptor 4 (MC4R); experiment: Neuropeptide levels in sectioned rat brain by antibody techniques: MC4R; type: in vivo; conditions: rat hypothalamus, 14 days ketone diet
Experimental: as §1

[11] = 14 days ketone ester diet, mean ± SEM
[12] = rats, monoester diet, 66 days, n = 20
[13] = rat brain, 14 days ketone ester diet, mean ± SEM
[14] = rat brain, 14 days ketone ester diet, mean ± SEM, p < 0.05 vs starch and vs fat

C[C@@H](O)CCOC(=O)C[C@@H](C)O [Monoester, (3R)-hydroxybutyl (3R)-hydroxybutyrate]
malonyl CoA levels in the brain compared with other diets ([1]; 14 days): higher | Acetyl CoA [1, 11]: 6.43 ± 0.53 µM | Fumarate [1, 11]: 0.0745 ± 0.0058 μmoles/g wet weight | Isocitrate [1, 11]: 0.0093 ± 0.008 μmoles/g wet weight | L-Malate [1, 11]: 0.181 ± 0.013 μmoles/g wet weight | Succinate [1, 11]: 0.0864 ± 0.0033 μmoles/g wet weight | Succinyl CoA [1, 11]: 0.910 ± 0.207 µM | α-ketoglutarate [1, 11]: 0.140 ± 0.008 μmoles/g wet weight | Calc Oxaloacetate ([1]; 14 days ketone ester diet, mean ± SEM, calculated): 0.0026 ± 0.0004 μmoles/g wet weight | Citrate ([1]; 14 days ketone ester diet, mean ± SEM, n=6 to 8): 0.222 ± 0.010 μmoles/g wet weight | Malonyl CoA ([1]; 14 days ketone ester diet, mean ± SEM, p < 0.05 between ketone ester and starch): 1.26 ± 0.13 ^a μM | BDNF-positive cell bodies in the paraventricular nucleus (PVN), compared to fat and carbohydrate diets (FIG. 3) [2]: significantly more; also recorded: more BDNF; also recorded: significantly greater number | daily food intake compared with carbohydrate and Western diets (FIG. 2) ([3]; first seven days): ate less food; also recorded: consistently reduced | daily body weight compared with carbohydrate and Western diets (FIG. 1) ([3]; first six days): Significantly reduced; also recorded: lost more weight | fat pad weight compared with Western or carbohydrate diet ([4]; end of the 66-day test): significantly lower | fat to body weight compared with other diets ([4]; end of the 66-day test): significantly lower | Final body weight ([4]; rats, monoester diet (30% of kilocalories), calorie-controlled, 66 days, n = 20): 213 ± 5 g | Heart to body weight [4, 12]: 0.29 ± 0.01% | Heart weight [4, 12]: 0.64 ± 0.02 g | Epididymal fat ([4]; rats, monoester diet, 66 days, n = 20, *P < 0.05): 1.48 ± 0.2* g | Epididymal fat to body weight ([4]; rats, monoester diet, 66 days, n = 20, *P < 0.05, in % (unit assumed)): 0.69 ± 0.1* | blood levels of (3R)-hydroxybutyrate [5]: measurably raised | CART-positive cell bodies in VMH, ARC and ME areas of the hypothalamus (FIG. 7) [6]: highest numbers | CART positive cell bodies in the PVN, compared to fat and carbohydrate diets (FIGS. 6, 8, 9) ([6]; rat hypothalamus): highest level; also recorded: more CART; also recorded: significantly greater number; also recorded: highest density | brain phosphorylation potential compared with carbohydrate and fat diets ([7]; after 14 days of diet): significantly higher | ΔG′ of ATP hydrolysis compared with carbohydrate and fat diets ([7]; after 14 days of diet): significantly higher | EhCoQ/CoQH2 from Fum/Succ [7, 13]: 28.9 ± 0.6 mV | Free [ADP] cytosol from PCr/Cr [7, 13]: 0.027 ± 0.001 µM/g | Free [AMP] cytosol from Kmyokinase [7, 13]: 0.0004 ± 0.00003 µM/g | Free [Mg^2+] from [Cit]/[Isocit] [7, 13]: 1.5 ± 0.13 mM | Free [NAD^+]/[NADH] mitochochondria from αKGxNH4^+/Glut [7, 13]: 0.80 ± 0.17 | Free [NAD^+]/[NADPH] cytosol from αKGxCO2/IsoCit [7, 13]: 0.026 ± 0.003 | Free [NAD^+]/[NADH] cytosol from Lactate/Pyruvate ([7]; rat brain, 14 days ketone ester diet, mean ± SEM, cytosolic pH assumed 7.2): 357 ± 27 | Phosphorylation Potential from Kg + g (Eqn 1) [7, 14]: 38,100 ± 3,390 ^a, b M^−1 | ΔG′ ATP [7, 14]: −59.6 ± 0.2 ^a, b kJ/mol | total amount of weight gained compared with CHOD and NHD groups ([8]; female rats): significantly less | feed intake during days 22 to 29 ([8]; female rats): 175 ± 12 g | body weight on day 28 ([8]; female rats): 240 ± 13 g | total amount of weight gained compared with CHOD and NHD groups ([8]; male rats): significantly less | feed intake during days 22 to 29 ([8]; male rats): 239 ± 17 g | body weight on day 28 ([8]; male rats): 390 ± 26 g | food consumption compared with starch or fat diets [9]: consume less food | weight gain compared with starch or fat diets [9]: gain less weight | MC4R positive cell bodies in pm and mpd regions of the PVN, compared to fat diet (FIGS. 4 and 5) [10]: significantly higher density; also recorded: more MC4R activity; also recorded: Significantly greater numbers; also recorded: significantly denser area
